Experimental data from patent publication US20130143905A1, “NOVEL ANTAGONISTS FOR CCR2 AND USES THEREOF” (BOEHRINGER INGELHEIM INTERNATIONAL GMBH, priority 2009, published 2013).

The molecules below were run against T1, CCR2 (Homo sapiens, UniProt P41597) (assay: CCR2 receptor membrane binding assay ([125I]MCP-1, THP-1 membranes, SPA beads)). Conditions: THP-1 cell membranes, [125I]MCP-1 displacement, dissociation constant hKi.
T1 construct: Membranes were prepared from THP-1 cells; endogenous in cells; host or cells: THP-1 (human acute monocytic leukaemia cells), membrane preparation
T1 sequence (P41597 1-360 isoform P41597-2): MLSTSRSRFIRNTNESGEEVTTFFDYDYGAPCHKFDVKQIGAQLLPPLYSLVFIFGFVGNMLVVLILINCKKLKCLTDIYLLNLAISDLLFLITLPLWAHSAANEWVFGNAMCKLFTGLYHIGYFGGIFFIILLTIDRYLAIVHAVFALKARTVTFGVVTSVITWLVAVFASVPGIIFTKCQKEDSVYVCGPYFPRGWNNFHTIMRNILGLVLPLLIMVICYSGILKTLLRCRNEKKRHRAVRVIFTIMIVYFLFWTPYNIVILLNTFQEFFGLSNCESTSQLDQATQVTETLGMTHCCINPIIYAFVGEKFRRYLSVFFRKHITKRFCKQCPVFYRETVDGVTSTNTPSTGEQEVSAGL
Procedure: The above exemplary substances have been tested for binding to CCR2 using a binding assay as outlined herein below:
THP-1 cells (human acute monocytic leukaemia cells) were cultured under standardized conditions at 37° C. and 5% CO2 in a humidified incubator. THP-1 cells were cultivated in RPMI 1640 medium (Gibco 21875) containing 1% MEM-NEAA (Gibso 11140) 2 mM L-glutamine, 1.5 g/L sodium bicarbonate, 4.5 g/L glucose, 10 mM HEPES and 1.0 mM sodium pyruvate, 90%; 10% fetal calf serum (FCS Gibco 10500-064).
Membranes were prepared from THP-1 cells. THP-1 cells were centrifuged at 300×g at 4° C. for 10 min. The cell pellet was resuspendet in Phosphate Buffer Saline (PBS, including 10 μM Pefabloc and a protease inhibitor mix ‘complete’, Boehringer Mannheim (1 tablet/50 ml)), to a concentration of […]. The membrane preparation was performed by disrupting the cells by nitrogen […] (at 50 bar, for 1 h) in a “Nitrogen Bombe” (Parr Instrument). Cell debris was removed by centrifugation (800×g at 4° C., 1 min). The supernatant was centrifuged at 80000×g, 4° C. for 30 min to sediment the cell membranes. Usually 50 mg of protein (Bradford assay) were yielded from 1×10E9 cells. The membranes were resuspendet in 25 mM HEPES, 25 mM MgCl2, 1 mM CaCl2, 10% Glycerine for storage in aliquots at −80° C. in 25 mM HEPES, 25 mM MgCl2, 1 mM CaCl2, 10% Glycerine and stored at −80° C.
Perkin Elmer NEX 332 Jod 125 MCP-1, Stock: 2200 Ci/mmol solved in 2000 μl assay buffer, stored at −20° C. THP-1 membrane were adjusted with 25 mM HEPES, pH 7.2; 5 mM MgCl2; 0.5 mM CaCl2; 0.2% BSA assay buffer to a concentration of 2.5 μg/15 μl. Amersham Biosciences PVT-WGA Beads (RPNQ0001) were adjusted with assay buffer to a concentration of 0.24 mg/30 μl. For preparation of the membrane-bead-suspension membranes and beads were incubated for 30 min at RT under rotation (60 rpm) with a ratio of 1:2. Test compounds dissolved in 100% DMSO to a concentration of 10 mM and are further diluted with 100% DMSO to 1 mM. All additional compound dilutions were obtained with assay buffer, final 1% DMSO. Compounds, membrane-bead-suspension and [125I]MCP-1 (ca. 25000 cpm/10 μl) were incubated. Bound radioactivity was determined by scintillation counter after 8 h. Determination of affinity of test compounds (dissociation constant hKi) is calculated by iterative fitting of experimental data using the “easy sys” program, which is based on law of mass action (Schittkowski K. (1994), Numerische Mathematik, Vol. 68, 129-142).

Row | SMILES | Ki [nM]
1 | CN(C1CCN(C2CCN(C(=O)c3ncnc(NC[C@H]4CCC[C@@H](c5ccccc5)C4)c3C3CC3)CC2)CC1)S(C)(=O)=O [Example 1] | 9
2 | CN(C1CCN(C2CCN(C(=O)c3ncnc(NCc4ccc(C(C)(C)C)cc4)c3C3CC3)CC2)CC1)S(C)(=O)=O [Example 2] | 82
3 | COc1c(NC[C@H]2CCC[C@@H](c3ccccc3)C2)ncnc1C(=O)N1CCC(N2CCC(N(C)S(C)(=O)=O)CC2)CC1 [Example 3] | 5
4 | COc1c(NCC2CCCC(c3ccccc3)C2)ncnc1C(=O)N1CCC(N2CCC(N(C)S(C)(=O)=O)CC2)CC1 (centres unmarked) [Example 4] | 15
5 | COc1c(NC[C@H]2CCC[C@@H](c3ccc(C)cc3)O2)ncnc1C(=O)N1CCC(N2CCC(N(C)S(C)(=O)=O)CC2)CC1 [Example 5] | 84
6 | COc1c(NC[C@H]2CCC[C@@H](c3ccc(C)cc3)O2)ncnc1C(=O)N1CCC(N[C@@H]2CCOC[C@@H]2OC)CC1 [Example 6] | 18
7 | COc1c(NC[C@H]2CCC[C@@H](c3ccc(C)cc3)O2)ncnc1C(=O)N1CCC(N[C@H]2CCOC[C@H]2OC)CC1 [Example 7] | 13
8 | COc1c(NC[C@H]2CCC[C@@H](c3cccc(C)c3)O2)ncnc1C(=O)N1CCC(N2CCC(N(C)S(C)(=O)=O)CC2)CC1 [Example 8] | 73
9 | COc1c(NC[C@H]2CCC[C@@H](c3cccc(C)c3)O2)ncnc1C(=O)N1CCC(N[C@@H]2CCOC[C@@H]2OC)CC1 [Example 9] | 25
10 | COc1c(NC[C@H]2CCC[C@@H](c3cccc(C)c3)O2)ncnc1C(=O)N1CCC(N[C@H]2CCOC[C@H]2OC)CC1 [Example 10] | 19
11 | COc1c(NC[C@H]2CCC[C@@H](c3ccccc3)C2)ncnc1C(=O)N1CCC(N[C@@H]2CCOC[C@@H]2OC)CC1 [Example 11] | 12
12 | COc1c(NC[C@H]2CCC[C@@H](c3ccccc3)C2)ncnc1C(=O)N1CCC(N[C@H]2CCOC[C@H]2OC)CC1 [Example 12] | 5
13 | COc1c(NC[C@H]2CCC[C@@H](c3ccccc3)C2)ncnc1C(=O)N1CCC(NC2CCOCC2OC)CC1 (some centres unmarked) [Example 13] | 5
14 | COc1c(NC[C@H]2CCC[C@@H](c3ccccc3)C2)ncnc1C(=O)N1CCC(N(C)C2CCOCC2OC)CC1 (some centres unmarked) [Example 14] | 16
15 | COc1c(NC[C@H]2CCC[C@@H](c3ccc(C)cc3)O2)ccnc1C(=O)N1CCC(N[C@H]2CCOC[C@H]2OC)CC1 [Example 15] | 13
16 | COc1c(NC[C@H]2CCC[C@@H](c3ccc(C)cc3)O2)ccnc1C(=O)N1CCC(N[C@@H]2CCOC[C@@H]2OC)CC1 [Example 16] | 22

Further lines, results first:

Row | Ki [nM] | SMILES
17 | 121 | COc1c(NCc2ccc(C(C)(C)C)cc2)ncnc1C(=O)N1CCC(N2CCC(N(C)S(C)(=O)=O)CC2)CC1 [Example 10a]
18 | 162 | COc1c(NC[C@@H]2CCC[C@H](c3ccc(Cl)cc3)O2)ncnc1C(=O)N1CCC(N[C@@H]2CCOC[C@@H]2OC)CC1 [Example 10b]
19 | 377 | COc1c(NC[C@@H]2CCC[C@H](c3ccc(Cl)cc3)O2)ncnc1C(=O)N1CCC(N2CCC(N(C)S(C)(=O)=O)CC2)CC1 [Example 10c]
20 | 120 | COc1c(NC[C@@H]2CCC[C@H](c3ccc(Cl)cc3)O2)ncnc1C(=O)N1CCC(N[C@H]2CCOC[C@H]2OC)CC1 [Example 10d]
21 | 10 | COc1c(NC[C@H]2CCC[C@@H](c3ccc(Cl)cc3)O2)ncnc1C(=O)N1CCC(N[C@@H]2CCOC[C@@H]2OC)CC1 [Example 10e]
22 | 60 | COc1c(NC[C@H]2CCC[C@@H](c3ccc(Cl)cc3)O2)ncnc1C(=O)N1CCC(N2CCC(N(C)S(C)(=O)=O)CC2)CC1 [Example 10f]
23 | 7 | COc1c(NC[C@H]2CCC[C@@H](c3ccc(Cl)cc3)O2)ncnc1C(=O)N1CCC(N[C@H]2CCOC[C@H]2OC)CC1 [Example 10g]
24 | 1 | COc1c(NC[C@H]2CCC[C@@H](c3ccc(C(F)(F)F)cc3)O2)ncnc1C(=O)N1CCC(N[C@H]2CCOC[C@H]2OC)CC1 [Example 10h]
25 | 3 | COc1c(NC[C@H]2CCC[C@@H](c3ccc(C(F)(F)F)cc3)O2)ncnc1C(=O)N1CCC(N[C@@H]2CCOC[C@@H]2OC)CC1 [Example 10i]
26 | 1 | COc1c(NC[C@H]2CCC[C@@H](c3ccc(OC(F)(F)F)cc3)O2)ncnc1C(=O)N1CCC(N[C@H]2CCOC[C@H]2OC)CC1 [Example 10j]
27 | 2 | COc1c(NC[C@H]2CCC[C@@H](c3ccc(OC(F)(F)F)cc3)O2)ncnc1C(=O)N1CCC(N[C@@H]2CCOC[C@@H]2OC)CC1 [Example 10k]
28 | 4 | COc1c(NC[C@H]2CCC[C@@H](c3ccc(C(F)(F)F)cc3)O2)ncnc1C(=O)N1CCC(NC2CCOCC2F)CC1 (some centres unmarked) [Example 10l]
29 | 1 | COc1c(NC[C@H]2CCC[C@@H](c3ccc(OC(F)(F)F)cc3)O2)ncnc1C(=O)N1CCC(NC2CCOCC2F)CC1 (some centres unmarked) [Example 10m]
